According to US20260248787A9, “MEDICAMENT FOR TREATING CANCER COMPRISING OPTICALLY ACTIVE AZABICYCLO RING DERIVATIVE” (Sumitomo Pharma Co., Ltd., priority 2023, published 2026):
Marks after values point to notes of the source that are not given here.

Assay: Phase 1/2 first-in-human clinical study, safety evaluation (DLT, TEAE, SAE)

For C=C1C[C@@H]2CC[C@H]1[C@@H](C(=O)N1CCC3(CC1)CN(c1ncncc1Oc1ccc(F)cc1C(=O)N(C(C)C)C(C)C)C3)N2 [the present compound, 5-fluoro-2-[(4-{7-[(1S,3S,4R)-5-methylidene-2-azabicyclo[2.2.2]octane-3-carbonyl]-2,7-diazaspiro[3.5]nonan-2-yl}pyrimidin-5-yl)oxy]-N,N-di(propan-2-yl)benzamide], the “Patients with any DLTs” value (40 mg BID Arm B (N=4; one patient not DLT evaluable)) was 0* n (%) and (0.0) n (%), the “cases of differentiation syndrome in patients with MLLr or NPM1m” value (24 patients enrolled) was “no cases” and the “grade of the majority of TEAEs related to the present compound” value (24 patients enrolled) was “Grade 1 or 2”. For the same compound, the “patients who experienced at least one TEAE” value (24 patients enrolled) was 24 patients, the “related TEAE leading to dose withdrawn or dose reduction” value (24 patients enrolled) was “No related TEAE leading to dose withdrawn or dose reduction” and the “patients who developed DLT” value (24 patients enrolled (40-120 mg BID Arm A, 40-60 mg BID Arm B)) was “none”. The “patients with fatal SAEs, total (all unrelated)” value (24 patients, Arm A + Arm B) was 8 patients, the “patients with serious adverse events (SAEs), total” value (24 patients, Arm A + Arm B) was 15 patients and the safety in humans (40 to 300 mg BID (Examples 1 and 5)) was “confirmed to be safe”. For the same compound, the “Treatment-related QT interval prolongation events” value (43 patients, 40-200 mg BID) was “not reported”, the “cases of differentiation syndrome in patients with MLLr or NPM1m” value (43 patients, 40-200 mg BID) was “no cases” and the “drug-related AE resulting in permanent treatment discontinuation” value (43 patients, 40-200 mg BID) was “No drug-related AE”. For the same compound, the “grade of the majority of TEAEs” value (43 patients, 40-200 mg BID) was “Grade 1 or Grade 2”, the treatment-related deaths (43 patients, 40-200 mg BID) was “no treatment-related deaths” and the DLTs (43 patients, any dose level of 40-200 mg) was “No DLTs”. The “cases of suspected differentiation syndrome related to the present compound” value (43 patients, patient with TP-53 mutation) was “One”, the “Differentiation syndrome (DS)” value (57 patients, 40-300 mg) was 3 patients and the “drug-related AE resulting in permanent treatment discontinuation” value (57 patients, 40-300 mg) was “No drug-related AE”. The treatment-related deaths (57 patients, 40-300 mg) was “no treatment-related deaths”, the DLTs (57 patients, any dose level of 40-300 mg) was “no DLTs” and the “Patients with Any TEAE” value (Arm A N=14, Any Grade) was 14 (100.0) n (%). The “TEAE: Alanine aminotransferase increased” value (Arm A N=14, Any Grade) was 1 (7.1) n (%), the “TEAE: Anaemia” value (Arm A N=14, Any Grade) was 5 (35.7) n (%) and the “TEAE: Aspartate aminotransferase increased” value (Arm A N=14, Any Grade) was 2 (14.3) n (%). For the same compound, the “TEAE: Blood and lymphatic system disorders” value (Arm A N=14, Any Grade) was 10 (71.4) n (%), the “TEAE: Constipation” value (Arm A N=14, Any Grade) was 3 (21.4) n (%) and the “TEAE: Decreased appetite” value (Arm A N=14, Any Grade) was 3 (21.4) n (%). For the same compound, the “TEAE: Disease progression” value (Arm A N=14, Any Grade) was 1 (7.1) n (%), the “TEAE: Dyspnoea” value (Arm A N=14, Any Grade) was 3 (21.4) n (%) and the “TEAE: Epistaxis” value (Arm A N=14, Any Grade) was 1 (7.1) n (%). The “TEAE: Fatigue” value (Arm A N=14, Any Grade) was 3 (21.4) n (%), the “TEAE: Gastrointestinal disorders” value (Arm A N=14, Any Grade) was 9 (64.3) n (%) and the “TEAE: General disorders and administration site disorders” value (Arm A N=14, Any Grade) was 8 (57.1) n (%). For the same compound, the “TEAE: Headache” value (Arm A N=14, Any Grade) was 5 (35.7) n (%), the “TEAE: Hemorrhoids” value (Arm A N=14, Any Grade) was 0 n (%) and the “TEAE: Hypertriglyceridaemia” value (Arm A N=14, Any Grade) was 1 (7.1) n (%). The “TEAE: Hypoalbuminaemia” value (Arm A N=14, Any Grade) was 3 (21.4) n (%), the “TEAE: Hypocalcaemia” value (Arm A N=14, Any Grade) was 3 (21.4) n (%) and the “TEAE: Hypokalaemia” value (Arm A N=14, Any Grade) was 2 (14.3) n (%). For the same compound, the “TEAE: Hypomagnaesemia” value (Arm A N=14, Any Grade) was 3 (21.4) n (%), the “TEAE: Hyponatraemia” value (Arm A N=14, Any Grade) was 4 (28.6) n (%) and the “TEAE: Infections and Infestations” value (Arm A N=14, Any Grade) was 8 (57.1) n (%). The “TEAE: Investigations” value (Arm A N=14, Any Grade) was 10 (71.4) n (%), the “TEAE: Metabolism and nutrition disorders” value (Arm A N=14, Any Grade) was 11 (78.6) n (%) and the “TEAE: Musculoskeletal and connective tissue disorders” value (Arm A N=14, Any Grade) was 7 (50.0) n (%). For the same compound, the “TEAE: Nausea” value (Arm A N=14, Any Grade) was 5 (35.7) n (%), the “TEAE: Nervous System Disorders” value (Arm A N=14, Any Grade) was 7 (50.0) n (%) and the “TEAE: Oedema peripheral” value (Arm A N=14, Any Grade) was 2 (14.3) n (%). For the same compound, the “TEAE: Pain in extremity” value (Arm A N=14, Any Grade) was 3 (21.4) n (%), the “TEAE: Platelet count decreased” value (Arm A N=14, Any Grade) was 3 (21.4) n (%) and the “TEAE: Pneumonia” value (Arm A N=14, Any Grade) was 2 (14.3) n (%). For the same compound, the “TEAE: Pruritus” value (Arm A N=14, Any Grade) was 3 (21.4) n (%), the “TEAE: Pyrexia” value (Arm A N=14, Any Grade) was 3 (21.4) n (%) and the “TEAE: Respiratory, thoracic and mediastinal disorders” value (Arm A N=14, Any Grade) was 6 (42.9) n (%). The “TEAE: Sepsis” value (Arm A N=14, Any Grade) was 2 (14.3) n (%), the “TEAE: Skin and subcutaneous tissue disorders” value (Arm A N=14, Any Grade) was 5 (35.7) n (%) and the “TEAE: Stomatitis” value (Arm A N=14, Any Grade) was 1 (7.1) n (%). The “TEAE: Vomiting” value (Arm A N=14, Any Grade) was 3 (21.4) n (%), the “related TEAE: Aspartate aminotransferase increased” value (Arm A N=14, Any Grade) was 0 n (%) and the “related TEAE: Blood and lymphatic system disorders” value (Arm A N=14, Any Grade) was 0 n (%). For the same compound, the “related TEAE: Decreased appetite” value (Arm A N=14, Any Grade) was 2 (14.3) n (%), the “related TEAE: Differentiation syndrome” value (Arm A N=14, Any Grade) was 1 (7.1) n (%) and the “related TEAE: Gastrointestinal disorders” value (Arm A N=14, Any Grade) was 2 (14.3) n (%). The “related TEAE: General disorders and administration site conditions” value (Arm A N=14, Any Grade) was 1 (7.1) n (%), the “related TEAE: Headache” value (Arm A N=14, Any Grade) was 1 (7.1) n (%) and the “related TEAE: Hypertriglyceridaemia” value (Arm A N=14, Any Grade) was 0 n (%). The “related TEAE: Hyperuricaemia” value (Arm A N=14, Any Grade) was 1 (7.1) n (%), the “related TEAE: Increased appetite” value (Arm A N=14, Any Grade) was 1 (7.1) n (%) and the “related TEAE: Investigations” value (Arm A N=14, Any Grade) was 0 n (%). The “related TEAE: Leukocytosis” value (Arm A N=14, Any Grade) was 0 n (%), the “related TEAE: Metabolism and nutrition disorders” value (Arm A N=14, Any Grade) was 4 (28.6) n (%) and the “related TEAE: Nausea” value (Arm A N=14, Any Grade) was 2 (14.3) n (%). The “related TEAE: Neoplasms benign, malignant and unspecified (incl cysts and polyps)” value (Arm A N=14, Any Grade) was 1 (7.1) n (%), the “related TEAE: Nervous system disorders” value (Arm A N=14, Any Grade) was 1 (7.1) n (%) and the “related TEAE: Thirst” value (Arm A N=14, Any Grade) was 1 (7.1) n (%). For the same compound, the “related TEAE: Vomiting” value (Arm A N=14, Any Grade) was 2 (14.3) n (%), the “Patients with Any TEAE” value (Arm A N=14, ≥Grade 3) was 14 (100.0) n (%) and the “TEAE: Alanine aminotransferase increased” value (Arm A N=14, ≥Grade 3) was 0 n (%). For the same compound, the “TEAE: Anaemia” value (Arm A N=14, ≥Grade 3) was 4 (28.6) n (%), the “TEAE: Aspartate aminotransferase increased” value (Arm A N=14, ≥Grade 3) was 1 (7.1) n (%) and the “TEAE: Blood and lymphatic system disorders” value (Arm A N=14, ≥Grade 3) was 8 (57.1) n (%). For the same compound, the “TEAE: Constipation” value (Arm A N=14, ≥Grade 3) was 0 n (%), the “TEAE: Decreased appetite” value (Arm A N=14, ≥Grade 3) was 0 n (%) and the “TEAE: Disease progression” value (Arm A N=14, ≥Grade 3) was 1 (7.1) n (%). The “TEAE: Dyspnoea” value (Arm A N=14, ≥Grade 3) was 1 (7.1) n (%), the “TEAE: Epistaxis” value (Arm A N=14, ≥Grade 3) was 0 n (%) and the “TEAE: Fatigue” value (Arm A N=14, ≥Grade 3) was 0 n (%). The “TEAE: Gastrointestinal disorders” value (Arm A N=14, ≥Grade 3) was 1 (7.1) n (%), the “TEAE: General disorders and administration site disorders” value (Arm A N=14, ≥Grade 3) was 2 (14.3) n (%) and the “TEAE: Headache” value (Arm A N=14, ≥Grade 3) was 0 n (%). For the same compound, the “TEAE: Hemorrhoids” value (Arm A N=14, ≥Grade 3) was 0 n (%), the “TEAE: Hypertriglyceridaemia” value (Arm A N=14, ≥Grade 3) was 0 n (%) and the “TEAE: Hypoalbuminaemia” value (Arm A N=14, ≥Grade 3) was 0 n (%). For the same compound, the “TEAE: Hypocalcaemia” value (Arm A N=14, ≥Grade 3) was 0 n (%), the “TEAE: Hypokalaemia” value (Arm A N=14, ≥Grade 3) was 0 n (%) and the “TEAE: Hypomagnaesemia” value (Arm A N=14, ≥Grade 3) was 0 n (%). The “TEAE: Hyponatraemia” value (Arm A N=14, ≥Grade 3) was 0 n (%).
